From PubChem BioAssay AID2060491 (Molecular Pharmacology Branch, DTP, NCI, 2025)
Values belong to the molecule of their own block, whether it stands above or below them.

System: 857933-349-R-J2-PDC complex spheroids, viability
Experiment: Anticancer human tumor 857933-349-R-J2-PDC patient-derived colon adenocarcinoma cell line growth inhibition [GQUAD]
Conditions: for IC50: curve of first compound; for viability, T/C: stronger effect = lower value
Outline: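 Tumor cells were grown as complex spheroids with HUVEC endothelial cells and mesenchymal stem cells as stroma. G-quadruplex stabilizers were combined with targeted agents over half-log dilutions from near the clinical Cmax, or from 10 microM.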

[1] = second compound 0.0316 µM, first compound 0.0316 µM
[2] = second compound 0.0316 µM, first compound 0.1 µM
[3] = second compound 0.0316 µM, first compound 0.316 µM
[4] = second compound 0.0316 µM, first compound 1 µM
[5] = second compound 0.0316 µM, first compound 3.16 µM
[6] = second compound 0.0316 µM, first compound 10 µM
[7] = second compound 0.1 µM, first compound 0.0316 µM
[8] = second compound 0.1 µM, first compound 0.1 µM
[9] = second compound 0.1 µM, first compound 0.316 µM
[10] = second compound 0.1 µM, first compound 1 µM
[11] = second compound 0.1 µM, first compound 3.16 µM
[12] = second compound 0.1 µM, first compound 10 µM
[13] = second compound 0.316 µM, first compound 0.0316 µM
[14] = second compound 0.316 µM, first compound 0.1 µM
[15] = second compound 0.316 µM, first compound 0.316 µM
[16] = second compound 0.316 µM, first compound 1 µM
[17] = second compound 0.316 µM, first compound 3.16 µM
[18] = second compound 0.316 µM, first compound 10 µM
[19] = second compound 1 µM, first compound 0.0316 µM
[20] = second compound 1 µM, first compound 0.1 µM
[21] = second compound 1 µM, first compound 0.316 µM
[22] = second compound 1 µM, first compound 1 µM
[23] = second compound 1 µM, first compound 3.16 µM
[24] = second compound 1 µM, first compound 10 µM
[25] = second compound 3.16 µM, first compound 0.0316 µM
[26] = second compound 3.16 µM, first compound 0.1 µM
[27] = second compound 3.16 µM, first compound 0.316 µM
[28] = second compound 3.16 µM, first compound 1 µM
[29] = second compound 3.16 µM, first compound 3.16 µM
[30] = second compound 3.16 µM, first compound 10 µM
[31] = second compound 10 µM, first compound 0.0316 µM
[32] = second compound 10 µM, first compound 0.1 µM
[33] = second compound 10 µM, first compound 0.316 µM
[34] = second compound 10 µM, first compound 1 µM
[35] = second compound 10 µM, first compound 3.16 µM
[36] = second compound 10 µM, first compound 10 µM
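Note: spheroids exposed to compounds for one week before readout.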
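Throughout, for viability, T/C: percent viability relative to vehicle DMSO wells taken as 100%.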

SMILES: Nc1ccn(C2OC(CO)C(O)C2(F)F)c(=O)n1 (stereo not drawn) + CN(C)c1ccc(Nc2c3ccc(NC(=O)CCN4CCCC4)cc3nc3cc(NC(=O)CCN4CCCC4)ccc23)cc1
IC50 (second compound 0.0316 µM): 366 nM
IC50 (second compound 0.1 µM): 383 nM
IC50 (second compound 0.316 µM): 357 nM
IC50 (second compound 1 µM): 379 nM
IC50 (second compound 3.16 µM): 497 nM
IC50 (second compound 10 µM): 639 nM
viability, T/C [1]: 99.8%
viability, T/C [2]: 78.5%
viability, T/C [3]: 56.7%
viability, T/C [4]: 26.6%
viability, T/C [5]: 15.5%
viability, T/C [6]: 16.1%
viability, T/C [7]: 98.8%
viability, T/C [8]: 81.3%
viability, T/C [9]: 58.3%
viability, T/C [10]: 22.9%
viability, T/C [11]: 15%
viability, T/C [12]: 15.7%
viability, T/C [13]: 98.5%
viability, T/C [14]: 81.3%
viability, T/C [15]: 57%
viability, T/C [16]: 18.1%
viability, T/C [17]: 14.6%
viability, T/C [18]: 15.6%
viability, T/C [19]: 97%
viability, T/C [20]: 77.3%
viability, T/C [21]: 60%
viability, T/C [22]: 19.4%
viability, T/C [23]: 16.6%
viability, T/C [24]: 14.5%
viability, T/C [25]: 83.2%
viability, T/C [26]: 75.9%
viability, T/C [27]: 65.2%
viability, T/C [28]: 27%
viability, T/C [29]: 18.3%
viability, T/C [30]: 16.5%
viability, T/C [31]: 73.8%
viability, T/C [32]: 73.4%
viability, T/C [33]: 60.7%
viability, T/C [34]: 43.8%
viability, T/C [35]: 24.3%
viability, T/C [36]: 21.8%

SMILES: C#Cc1c(F)ccc2cc(O)cc(-c3ncc4c(N5CC6CCC(C5)N6)nc(OCC56CCCN5CC(F)C6)nc4c3F)c12 (stereo not drawn) + Cc1[nH]c2ccc(F)cc2c1-c1nc2c3cccnc3c3ncccc3c2[nH]1
IC50 (second compound 0.0316 µM): > 10000 nM
IC50 (second compound 0.1 µM): > 10000 nM
IC50 (second compound 0.316 µM): > 10000 nM
IC50 (second compound 1 µM): > 10000 nM
IC50 (second compound 3.16 µM): > 10000 nM
IC50 (second compound 10 µM): > 10000 nM
viability, T/C [1]: 109%
viability, T/C [2]: 96.3%
viability, T/C [3]: 91.9%
viability, T/C [4]: 80.7%
viability, T/C [5]: 74.3%
viability, T/C [6]: 63.9%
viability, T/C [7]: 104%
viability, T/C [8]: 98.5%
viability, T/C [9]: 89.2%
viability, T/C [10]: 85.2%
viability, T/C [11]: 71.3%
viability, T/C [12]: 66.7%
viability, T/C [13]: 101%
viability, T/C [14]: 90.8%
viability, T/C [15]: 86.3%
viability, T/C [16]: 78.4%
viability, T/C [17]: 81.7%
viability, T/C [18]: 70.1%
viability, T/C [19]: 98.2%
viability, T/C [20]: 87.5%
viability, T/C [21]: 93.3%
viability, T/C [22]: 78.8%
viability, T/C [23]: 86.7%
viability, T/C [24]: 75.7%
viability, T/C [25]: 94.3%
viability, T/C [26]: 83.2%
viability, T/C [27]: 81.6%
viability, T/C [28]: 73.3%
viability, T/C [29]: 80.8%
viability, T/C [30]: 74.3%
viability, T/C [31]: 90.4%
viability, T/C [32]: 93.7%
viability, T/C [33]: 87%
viability, T/C [34]: 79.9%
viability, T/C [35]: 78.8%
viability, T/C [36]: 66.8%

SMILES: CC1COCCN1c1cc(C2(O)CC3CCC(C2)O3)c2cnn(-c3ccn[nH]3)c2n1 (stereo not drawn) + CN(C)c1ccc(Nc2c3ccc(NC(=O)CCN4CCCC4)cc3nc3cc(NC(=O)CCN4CCCC4)ccc23)cc1
IC50 (second compound 0.0316 µM): 9430 nM
IC50 (second compound 0.1 µM): > 10000 nM
IC50 (second compound 0.316 µM): > 10000 nM
IC50 (second compound 1 µM): > 10000 nM
IC50 (second compound 3.16 µM): > 10000 nM
IC50 (second compound 10 µM): 3110 nM
viability, T/C [1]: 104%
viability, T/C [2]: 90.6%
viability, T/C [3]: 73.8%
viability, T/C [4]: 61.5%
viability, T/C [5]: 51.4%
viability, T/C [6]: 50.7%
viability, T/C [7]: 97.8%
viability, T/C [8]: 92.4%
viability, T/C [9]: 75.6%
viability, T/C [10]: 60.2%
viability, T/C [11]: 53.8%
viability, T/C [12]: 55.4%
viability, T/C [13]: 94.1%
viability, T/C [14]: 82.5%
viability, T/C [15]: 74.2%
viability, T/C [16]: 52.7%
viability, T/C [17]: 56.9%
viability, T/C [18]: 54.1%
viability, T/C [19]: 92.8%
viability, T/C [20]: 76%
viability, T/C [21]: 71%
viability, T/C [22]: 54.6%
viability, T/C [23]: 62.6%
viability, T/C [24]: 50.1%
viability, T/C [25]: 88.2%
viability, T/C [26]: 71.9%
viability, T/C [27]: 75.3%
viability, T/C [28]: 55%
viability, T/C [29]: 59.4%
viability, T/C [30]: 50%
viability, T/C [31]: 70.7%
viability, T/C [32]: 70.2%
viability, T/C [33]: 63.5%
viability, T/C [34]: 54.9%
viability, T/C [35]: 51.7%
viability, T/C [36]: 40.8%

IC50 (second compound 0.0316 µM): 331 nM
IC50 (second compound 0.1 µM): 104 nM
IC50 (second compound 0.316 µM): < 31.6 nM
IC50 (second compound 1 µM): < 31.6 nM
IC50 (second compound 3.16 µM): < 31.6 nM
IC50 (second compound 10 µM): < 31.6 nM
SMILES: COc1cc(C2c3cc4c(cc3C(OC3OC5COC(C)OC5C(O)C3O)C3COC(=O)C23)OCO4)cc(OC)c1O (stereo not drawn) + Cc1cnc(CNC(=O)c2c(=O)c3ccc(N4CCCN(C)CC4)nc3n3c2sc2ccccc23)cn1
viability, T/C [1]: 66.6%
viability, T/C [2]: 52.2%
viability, T/C [3]: 43.6%
viability, T/C [4]: 47%
viability, T/C [5]: 43.6%
viability, T/C [6]: 22.9%
viability, T/C [7]: 54.1%
viability, T/C [8]: 49.4%
viability, T/C [9]: 44.5%
viability, T/C [10]: 38.2%
viability, T/C [11]: 36.2%
viability, T/C [12]: 18.4%
viability, T/C [13]: 27.8%
viability, T/C [14]: 31.1%
viability, T/C [15]: 24.8%
viability, T/C [16]: 22.8%
viability, T/C [17]: 13.7%
viability, T/C [18]: 6.56%
viability, T/C [19]: 5.71%
viability, T/C [20]: 6.22%
viability, T/C [21]: 5.39%
viability, T/C [22]: 5.9%
viability, T/C [23]: 4.83%
viability, T/C [24]: 3.18%
viability, T/C [25]: 3.86%
viability, T/C [26]: 2.65%
viability, T/C [27]: 2.29%
viability, T/C [28]: 2.54%
viability, T/C [29]: 2.32%
viability, T/C [30]: 1.47%
viability, T/C [31]: 1.65%
viability, T/C [32]: 1.68%
viability, T/C [33]: 1.55%
viability, T/C [34]: 2.21%
viability, T/C [35]: 0.74%
viability, T/C [36]: 0.21%
